What was measured:
Liver spheroids [1] = test: In vitro 3D liver NASH model: TG detection; format: cell-based, human; settings: 60 nM; Day 10; compared with the NASH group; p<0.05
Description: (§1) Four types of human primary cells were used for modeling, including human primary hepatocytes (PHH), human primary liver sinusoidal endothelial cells (LSEC), human primary hepatic stellate cells (HSC), and human primary Kupffer cells (KC). The total number of cells in each model was 3000.
(§2) The cell connector NAC-Linker A was mixed with hepatocytes and incubated at room temperature for 30 minutes so that NAC-Linker A was fixed on the cell membrane surface. At the same time, the cell connector NAC-Linker B was mixed with the mixture of intrahepatic non-parenchymal cells and incubated at room temperature for 30 minutes so that NAC-Linker B was fixed on the cell membrane surface; (2) after incubation, the hepatocytes carrying NAC-Linker A and the intrahepatic non-parenchymal cells carrying NAC-Linker B were mixed evenly, and 20-30 µl droplets were prepared on the lid of a culture plate using a pipette. PBS solution and liver physiological culture medium (Puheng Biomedicine (Shanghai) Co., Ltd., liver physiological culture medium (human), catalog No. M0001) were added to the wells of the culture plate. The prepared culture plate lid was inverted and placed onto the culture plate to form hanging drops. The culture plate with hanging drops was placed upside down in a 37°C incubator for 12-24 hours. […]

[2] = tested on: bleomycin-induced mouse pulmonary fibrosis model; test: Bleomycin-induced pulmonary fibrosis model: lung fibrosis grading score (Masson staining, Ashcroft Score); format: in vivo, C57BL/6 mice; settings: endpoint 28 days, compared with the vehicle-treated group, p value <0.05
Description: (§3) Experimental preparation: C57BL/6 mice, 8-10 weeks old, female, body weight approximately 18-22 g. Bleomycin. 1% sodium pentobarbital, sterile normal saline, insulin syringe.
(§4) Drug: p-toluenesulfonate salt of Compound 12 (10 mg/mL). The specific drug preparation method was as follows: 282.87 mg of the p-toluenesulfonate salt powder of Compound 12 was weighed and mixed with 1.050 mL of DMSO solution (preheated to 45°C). The mixture was placed in an ultrasonic water bath until completely dissolved. Subsequently, 19.95 mL of mixed solvent (comprising 1.995 mL of Solutol, 1.995 g of hydroxypropyl-β-cyclodextrin, and 15.96 mL water ) was added. The resulting mixture was sonicated again until completely dissolved to obtain a working solution with a concentration of 10 mg/mL. 1. After the mice begin to adapt to the environment, the experiment is started. The experimental animals are divided into five groups: normal control group, model group (Bleomycin group), low-dose treatment group (25 mg/kg), high-dose treatment group (50 mg/kg), and vehicle treatment group. […]
(§5) 5. […] According to the time point, the mice were euthanized and samples were collected for subsequent experiments; the day of modeling is recorded as day 1. […]

[3] = tested on: bleomycin-induced mouse pulmonary fibrosis model; test: Bleomycin-induced pulmonary fibrosis model: lung inflammation scoring (HE staining, Szapiel Score); format: in vivo, C57BL/6 mice; settings: high-dose group (50 mg/kg); endpoint 28 days; compared with the vehicle treatment group; p value<0.05
Description: as §3, §4, §5

COL1 and α-SMA = test: In vitro 3D liver NASH model: COL1 and α-SMA immunofluorescence staining; format: cell-based, human; settings: 10 nM, 30 nM and 60 nM groups
Description: as §1
as §2, with “plate.” for “plate. The prepared culture plate lid was inverted and placed onto the culture plate to form hanging drops. The culture plate with hanging drops was placed upside down in a 37°C incubator for 12-24 hours.”
Liver spheroids were paraffin-embedded and sectioned, subjected to immunofluorescence staining, mounted, and photographed under a fluorescence microscope, and the results are shown in Figure 5

Liver spheroids [4] = test: In vitro 3D liver NASH model: H&E staining; format: cell-based, human; settings: compared with the NASH group
Description: as §1
(§6) The cell connector NAC-Linker A was mixed with hepatocytes and incubated at room temperature for 30 minutes so that NAC-Linker A was fixed on the cell membrane surface. At the same time, the cell connector NAC-Linker B was mixed with the mixture of intrahepatic non-parenchymal cells and incubated at room temperature for 30 minutes so that NAC-Linker B was fixed on the cell membrane surface; (2) after incubation, the hepatocytes carrying NAC-Linker A and the intrahepatic non-parenchymal cells carrying NAC-Linker B were mixed evenly, and 20-30 µl droplets were prepared on the lid of a culture plate using a pipette. PBS solution and liver physiological culture medium (Puheng Biomedicine (Shanghai) Co., Ltd., liver physiological culture medium (human), catalog No. M0001) were added to the wells of the culture plate. The prepared culture plate lid was inverted and placed onto the culture plate to form hanging drops. The culture plate with hanging drops was placed upside down in a 37°C incubator for 12-24 hours. Under the curvature of the lower surface of the hanging drops and gravity, complementary DNA pairing in the NAC-Linker formed connections to generate a 3D liver organoid structure.
(§7) After successful modeling on Day 0, the samples were divided into 5 groups according to different treatments, with 9 samples in each group. […]
Using ImageJ software, the steatotic area on the slides after H&E staining was quantified, and the ratio of the steatotic area to the total area of each slide was calculated (results are shown in Figure 6).

IL-6 = test: In vitro 3D liver NASH model: cytokine detection (IL-6); format: cell-based, human; settings: 60 nM; culture medium supernatant; compared with the NASH group; significant difference p<0.05
Description: as §1
as §2, with “drops.” for “drops. The culture plate with hanging drops was placed upside down in a 37°C incubator for 12-24 hours.”
The culture medium supernatant was collected and tested using an IL-6 detection kit according to the manufacturer's instructions, with measurement performed using a microplate reader.

Liver spheroids [5] = test: In vitro 3D liver NASH model: Sirius Red staining; format: cell-based, human; settings: for Sirius Red staining: fibrosis area in the liver spheroids: compared with the NASH group
Description: as §1, §6, §7
Using ImageJ software, the fibrosis area on the slides after Sirius Red staining was quantified, and the ratio of the fibrosis area to the total area of each slide was calculated (Figure 7).

In the case of `Cc1cc(Nc2ncnn3cc(OCCN4CCC(F)(F)C4)c(C)c23)c(=O)n2c1C(=O)NC21CCCC1` [Compound 12 p-toluenesulfonate], the TG level (Liver spheroids [1]) is reported as “significant difference”, the “Ashcroft Scores of lung tissue fibrosis” value ([2]; high-dose group (50 mg/kg)) is reported as “significantly lower scores” and the “Ashcroft Scores of lung tissue fibrosis” value ([2]; low-dose group (25 mg/kg)) is reported as “significantly lower scores”. For the same compound, the “Szapiel Score of lung tissue fibrosis” value [3] was “significantly lower score”, the “COL1 and α-SMA immunofluorescence staining” value (COL1 and α-SMA) was “therapeutic effect on liver fibrosis and exhibits dose dependence” and the “H&E staining: hepatocyte steatosis and ballooning degeneration” value (“H&E staining” below) (Liver spheroids [4]; 10 nM) was “improvement in hepatocyte steatosis and ballooning degeneration”. For the same compound, the “H&E staining” value (Liver spheroids [4]; 30 nM) was “significant histological improvement”, the “H&E staining” value (Liver spheroids [4]; 60 nM) was “significant histological improvement” and the “inflammatory cytokine level (IL-6)” value (IL-6) was “improved”. For the same compound, the “Sirius Red staining: degree of liver fibrosis” value (Liver spheroids [5]; 10 nM, compared with the normal control group (so in the source)) was “trend of improvement”, the “Sirius Red staining: fibrosis area in the liver spheroids” value (Liver spheroids [5]; 30 nM) was “significant differences” and the “Sirius Red staining: fibrosis area in the liver spheroids” value (Liver spheroids [5]; 60 nM) was “significant differences”.
